Measurements published in US12570627B2, “Pharmaceutical composition in which production of impurities is suppressed” (Shionogi & Co., Ltd., priority 2020, dated 2026).
Values joined by “and” are separate entries in the source; they are usually repeats but may differ in a detail not shown here. Equal values may be shown once. Values belong to the compound of their own block, whether it stands above or below them.

Tests used:
Format in all cases: physicochemical
[1] = Measurement of content ratio of compound represented by Formula (III) contained in crystal (Test Example 1); settings: crystal as produced
Description: The content ratio of the compound represented by Formula (III) in the dihydrate crystal of the compound represented by Formula (I) produced in Example L was determined by the following method.
In Examples 1 to 4 and 6 and Reference Examples 1 to 2, the content ratio was determined in the same manner.
(§1) A standard sample of the compound represented by Formula (III) was prepared by the following method, • Step 1: About 25 µg of the compound represented by Formula (III) was weighed precisely, and dissolved in a mixed solution of N,N-dimethylformamide and water (9:1) to make exactly 20 mL, • Step 2: One milliliter of the solution of Step 1 was accurately taken, and a mixed solution of N,N-dimethylformamide and water (9:1) was added to make exactly 50 mL. • Step 3: Two milliliters of the solution of Step 2 was accurately taken, and a mixed solution of N,N-dimethylformamide and water (9:1) was added to make exactly 20 mL, thereby obtaining a standard solution. (Preparation of Sample Solution)
(§2) About 125 to 600 mg of a sample was weighed precisely, and dissolved by adding a mixed solution of N,N-dimethylformamide and water (9:1) to make exactly 5 mL.
(§3) An amount of the compound represented by Formula (III) was measured with a liquid chromatograph according to the following method and conditions. • Measuring instrument: UHPLC (NexeraX2, SHIMADZU) • Detector: UV • Measurement wavelength: 271 nm • Column: ACQUITY UPLC BEH SHIELD PR18, 1.7 μm (2.1×100 mm) • Column temperature: constant temperature at near 40° C. • Mobile phase A: 20 mmol/L potassium dihydrogen phosphate aqueous solution • Mobile phase B: acetonitrile for liquid chromatography • Feed of mobile phase: The mixing ratio of mobile phase A and mobile phase B was changed as shown in Table 1 to control concentration gradient.
(§4) • Flow rate: 0.3 mL/min • Injection amount 2 μL • Sample cooler temperature: 5° C. • Area measurement range: 11 minutes after injection • Needle washing solution: mixed solution of N,N-dimethylformamide and water (9:1) (Calculation Formula) Content (ppm) of compound represented by Formula(III)=MS/MT×AT/AS×1/2000×1000000 (Mathematical formula 4) • MS: Weighing amount (mg) of compound represented by Formula (III) • MT: Weighing amount (mg) of sample • AS: Peak area of compound represented by Formula (III) obtained from standard solution • AT: Peak area of compound represented by Formula (III) obtained from sample solution • 1/2000: Dilution ratio

[2] = 90% particle size distribution, laser diffraction HELOS & RODOS (Test Example 2); settings: dispersion pressure 4 bar
Description: A 90% particle size distribution in the production method of Reference Example 1 was determined by the following method.
In Examples 1 to 6 and Reference Example 3, the 90% particle size distribution was determined in the same manner.
A 90% particle size distribution was measured according to the following method and conditions. • Measuring instrument: laser diffraction particle size distribution measuring apparatus (HELOS & RODOS, Sympatec GmbH) • Dispersion pressure: 4 bar • Feed: 50% • Rotation: 20% • Focal length: 50 mm • Trigger condition: reference duration 2 seconds • Time Base 100 ms • Start Optical concentration ≥1.0% • Stop Optical concentration ≤1.0% • Measurement range: R2

[3] = Measurement of content ratio of compound represented by Formula (III) contained in solution; increase during crystallization operation (Test Example 3); settings: for Increased amount of content ratio of compound represented by Formula (III) during crystallization operation: total in filtrate and crystal minus solution before crystallization; for Total amount of the content ratio of compound represented by Formula (III) contained in the filtrate after filtration and the obtained crystal: after crystallization; for Content ratio of compound represented by Formula (III) in the solution before crystallization: reaction solution / dissolved anhydrate crystal
Description: The content ratio of the compound represented by Formula (JII) in the solution in the production method of Example 1 was determined by the following method.
In Example 4 and Reference Examples 2 to 3, the content ratio was determined in the same manner.
as §1, with “the following method. • Step” for “the following method, • Step”, “About 25 mg of the” for “About 25 µg of the”, “exactly 20 mL. • Step” for “exactly 20 mL, • Step”, “exactly 20 ml, thereby obtaining” for “exactly 20 mL, thereby obtaining”
About 60 to 1300 mg of a sample was weighed precisely, and dissolved by adding a mixed solution of N,N-dimethylformamide and water (9:1) to make exactly 5 mL.
as §3, with “SHIELD PF18,” for “SHIELD PR18,”, “Table 2” for “Table 1”
• Flow rate: 0.3 mL/min • Injection amount: 2 μL • Sample cooler temperature: 5° C. • Area measurement range: 11 minutes after injection • Needle washing solution: mixed solution of N,N-dimethylformamide and water (9:1) (Calculation formula) Content (ppm) of compound represented by Formula(III)=MS/MT×AT/AS×1/2000×YT/YS×1000000 (Mathematical formula 3) • MS: Weighing amount (mg) of compound represented by Formula (III) • MT: Weighing amount (mag) of sample • AS: Peak area of compound represented by Formula (III) obtained from standard solution • AT: Peak area of compound represented by Formula (III) obtained from sample solution • YS: Yield (g) of compound represented by Formula (I) • YT: Total weight (g) of sample • 1/2000: Dilution ratio

[4] = Stability testing of crystal (Test Example 4); settings: for Content ratio of compound represented by Formula (III), 1M: protect from light, double polyethylene bag with desiccant, metal can
Description: as §1, §2, §3, §4
The samples obtained in Example 1 and Reference Example 1 were subjected to a stability testing to evaluate the content of the compound represented by Formula (III).
The storage conditions and the packaging form of Example 1 are shown in Table 3, and the storage conditions and the packaging form of Reference Example 1 are shown in Table 4.
Samples were placed in a polyethylene bag (Suntec-LD M2206 (additive free) 100×210×0.1 mm, TOWA KAKO CO., LTD.) and tightened with Convex (CV100N, SHIBAKEISOZAI CO., LTD.). This bag was further placed in a polyethylene (Suntec-LD M2206 (additive free) 100×210×0.1 mm, TOWA KAKO CO., LTD.) bag and similarly tightened with Convex (CV100N, SHIBAKEISOZAI CO., LTD.). The above samples under the same storage conditions were put together in a metal can (3dia, a stainless steel can with an inner diameter of 16 cm and a depth of 18 cm). • Double polyethylene bag, Convex (containing desiccant), metal can:
Samples were placed in a polyethylene bag (Suntec-LD M2206 (additive free) 100×210×0.1 mm, TOWA KAKO CO., LTD.) and tightened with Convex (CV100N, SHIBAKEISOZAI CO., LTD.). This bag was further placed in a polyethylene bag (Suntec-LD M2206 (additive free) 100×210×0.1 mm, TOWA KAKO) CO., LTD.) and similarly tightened with Convex (CV100N, SHIBAKEISOZAI CO., LTD.). The samples under the same storage conditions were put together in a metal can (3dia, a stainless steel can with an inner diameter of 16 cm and a depth of 18 cm) containing silica gel (using raw materials manufactured by Fuji Silysia Chemical Ltd., contained in 1 g bag).
The content of the compound represented by Formula (III) was confirmed in the same manner as in Test Example 1.

SMILES: C[C@@H](Cn1c(=O)[nH]/c(=N\c2ccc(Oc3ccccn3)cc2)n(Cc2ccc(Cl)cc2)c1=O)C(=O)O [Example 2]
Content ratio of compound represented by Formula (III) in the obtained crystal [1]: 1.0 ppm
90% particle size distribution [2]: 7.17 μm

SMILES: C[C@@H](Cn1c(=O)[nH]/c(=N\c2ccc(Oc3ccccn3)cc2)n(Cc2ccc(Cl)cc2)c1=O)C(=O)O [Example 3]
Content ratio of compound represented by Formula (III) in the obtained crystal [1]: 1.5 ppm
90% particle size distribution [2]: 6.48 μm

SMILES: C[C@@H](Cn1c(=O)[nH]/c(=N\c2ccc(Oc3ccccn3)cc2)n(Cc2ccc(Cl)cc2)c1=O)C(=O)O [Example 4]
Content ratio of compound represented by Formula (III) in the obtained crystal [1]: 1.30 ppm
Increased amount of content ratio of compound represented by Formula (III) during crystallization operation [3]: 8.7 ppm

SMILES: C[C@@H](Cn1c(=O)[nH]/c(=N\c2ccc(Oc3ccccn3)cc2)n(Cc2ccc(Cl)cc2)c1=O)C(=O)O [Example 5]
90% particle size distribution [2]: 27.57 μm

SMILES: C[C@@H](Cn1c(=O)[nH]/c(=N\c2ccc(Oc3ccccn3)cc2)n(Cc2ccc(Cl)cc2)c1=O)C(=O)O [Example 6]
Content ratio of compound represented by Formula (III) in the obtained crystal [1]: 1.0 ppm
90% particle size distribution [2]: 61.22 μm

More lines, main results first:

Content ratio of compound represented by Formula (III) in the obtained crystal [1]: not detected
SMILES: C[C@@H](Cn1c(=O)[nH]/c(=N\c2ccc(Oc3ccccn3)cc2)n(Cc2ccc(Cl)cc2)c1=O)C(=O)O [Example L]
Content ratio of compound represented by Formula (III) in the obtained crystal ([1]; listed as dihydrate crystal of the compound represented by Formula (I)): not contained or is below a detection limit

Increased amount of compound represented by Formula (III) from the start of the test ([4]; 40±2° C./75±5% RH, 1 month): 12 ppm
Content ratio of compound represented by Formula (III), 3M ([4]; 40±2° C./75±5% RH, 3 months): 18 ppm
Increased amount of compound represented by Formula (III) from the start of the test ([4]; 40±2° C./75±5% RH, 3 months): 15 ppm
Content ratio of compound represented by Formula (III), 3M ([4]; 40 ± 2° C./75 ± 5% RH, 3 months, listed as Reference example 1): 18 ppm
Content ratio of compound represented by Formula (III), 1M ([4]; 40 ± 2° C./75 ± 5% RH, 1 month): 15 ppm
Content ratio of compound represented by Formula (III), 1M ([4]; 40 ± 2° C./75 ± 5% RH, 1 month, listed as Reference example 1): 15 ppm
Content ratio of compound represented by Formula (III), Initial ([4]; start of test): 3 ppm
90% particle size distribution [2]: 14.53 μm
SMILES: C[C@@H](Cn1c(=O)[nH]/c(=N\c2ccc(Oc3ccccn3)cc2)n(Cc2ccc(Cl)cc2)c1=O)C(=O)O [Reference Example 1]

Content ratio of compound represented by Formula (III) in the obtained crystal [1]: 1.3 ppm and 1.30 ppm
Total amount of the content ratio of compound represented by Formula (III) contained in the filtrate after filtration and the obtained crystal [3]: 316.7 ppm
Content ratio of compound represented by Formula (III) in the solution before crystallization [3]: 178.9 ppm
SMILES: C[C@@H](Cn1c(=O)[nH]/c(=N\c2ccc(Oc3ccccn3)cc2)n(Cc2ccc(Cl)cc2)c1=O)C(=O)O [Reference Example 2]

90% particle size distribution [2]: 169.84 μm
Total amount of the content ratio of compound represented by Formula (III) contained in the filtrate after filtration and the obtained crystal [3]: 252.5 ppm
Content ratio of compound represented by Formula (III) in the solution before crystallization [3]: 82.0 ppm
Increased amount of content ratio of compound represented by Formula (III) during crystallization operation [3]: 170.5 ppm
SMILES: C[C@@H](Cn1c(=O)[nH]/c(=N\c2ccc(Oc3ccccn3)cc2)n(Cc2ccc(Cl)cc2)c1=O)C(=O)O [Reference Example 3]
